Where a name gives a salt, the structure may show the parent alone. Read-outs that look alike come from different tables or passages of the source.
Tests used:
PKC epsilon = molecular target: T1, PKC epsilon (Homo sapiens, UniProt Q02156); test: Biochemical assay for PKC epsilon (fluorescence polarization, Protein Kinase C Assay Kit, Red); conditions: read-out: IC50 μM PKCε
T1 construct: purchased Invitrogen P2282
T1 sequence (Q02156 1-737): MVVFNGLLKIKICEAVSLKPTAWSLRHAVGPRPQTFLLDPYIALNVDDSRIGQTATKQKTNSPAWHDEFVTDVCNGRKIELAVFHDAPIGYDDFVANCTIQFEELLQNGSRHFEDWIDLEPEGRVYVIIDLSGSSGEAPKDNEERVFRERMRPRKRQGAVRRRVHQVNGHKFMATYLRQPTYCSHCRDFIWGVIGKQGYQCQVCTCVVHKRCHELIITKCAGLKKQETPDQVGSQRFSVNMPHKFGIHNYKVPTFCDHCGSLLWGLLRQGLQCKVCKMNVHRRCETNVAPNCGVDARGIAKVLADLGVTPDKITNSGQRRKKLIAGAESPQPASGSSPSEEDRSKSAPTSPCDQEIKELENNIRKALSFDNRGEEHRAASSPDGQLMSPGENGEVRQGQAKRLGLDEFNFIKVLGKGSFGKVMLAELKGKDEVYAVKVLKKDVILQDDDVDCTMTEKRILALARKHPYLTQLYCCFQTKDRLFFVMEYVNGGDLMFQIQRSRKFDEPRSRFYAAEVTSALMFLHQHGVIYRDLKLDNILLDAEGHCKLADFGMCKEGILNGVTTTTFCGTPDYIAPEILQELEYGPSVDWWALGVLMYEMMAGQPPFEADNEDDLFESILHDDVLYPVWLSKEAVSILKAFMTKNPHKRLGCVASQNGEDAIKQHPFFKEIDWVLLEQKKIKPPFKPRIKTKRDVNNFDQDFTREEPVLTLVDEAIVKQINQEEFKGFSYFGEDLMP
Summary of the method: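 PKC epsilon at 10 ng/ml final was preincubated 30 min at room temperature with compound in HEPES pH 7.4 with DTT and Triton X-100. ATP/protein substrate was then added in buffer with MgCl2 and CaCl2 for 80 min. The reaction was stopped with EDTA, phosphorylation was detected by fluorescence polarization with rhodamine tracer and anti-phosphoserine antibody, and IC50 values came from curve fits.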

human ROCKα/ROCKII mix = molecular target: T2, human ROCKα/ROCKII mix (Homo sapiens, UniProt O75116); test: Biochemical assay for ROCK (fluorescence polarization, ROCK IMAP Kit)
T2 construct: purchased Upstate Biotechnology 14-451
Experimental: The compounds were tested for inhibition of human ROCKα/ROCKII mix.
The inhibition assays were performed with a fluorescence polarization (FP) assay using the commercially available ROCK IMAP Kit from Molecular Devices (Product ID. No. R8093), essentially in accordance with the protocol supplied by the manufacturer. […] The enzyme mix ROCKα/ROCKII was obtained from Upstate Biotechnology (Product ID No 14-451).
In summary, the compound was screened in the wells of a 384 well plate for enzymatic inhibition with concentrations varying from 100 μM to 0.3 nM using a stepwise 3 (or 2)-fold dilution.
To perform the assay, 1 μl of a solution of the compound to be tested in DMSO (at each concentration) was added to 2 μl of a solution of the enzyme in 10 mM Tris-HCl , 10 mM MgCl2, 0.1% BSA, 0.05% NaN3, pH 7.2. The final concentration of the enzyme was 2.6 nM.
After incubating for 30 minutes at room temperature, 2 μl of a mixture of ATP and the protein substrate in 10 mM Tris-HCl, 10 mM MgCl2, 0.1% BSA, 0.05% NaN3, pH 7.2 was added. The final concentration of the ATP was 10 μM and final concentration of protein substrate was 0.2 μM.
After incubating for 60 minutes at room temperature, 12 μl of the IMAP Binding Solution (mix of the IMAP Binding Buffer A (1×) and the IMAP Binding Reagent (from the ROCK IMAP kit)) was added.
The mixture thus obtained (total volume: 17 μl) was incubated for 60 minutes at room temperature, upon which the fluorescence polarization was measured using an automated plate reader (Perkin Elmer, Model Envision 2100-0010 HTS) with FP filters: excitation filter FITC FP 480 and emission filters FITC FP P-pol 535 and FITC FP S-pol 535 (Perkin-Elmer). The results were fitted to a curve using the XL-Fit algorithm and IC50 values were calculated for each fitted curve, again using the XL-Fit algorithm.

[1] = compounds of Formula XIV, Table 3
[2] = Table 2, compounds of Formula XIII

T2 sequence (O75116 11-552 limits assumed): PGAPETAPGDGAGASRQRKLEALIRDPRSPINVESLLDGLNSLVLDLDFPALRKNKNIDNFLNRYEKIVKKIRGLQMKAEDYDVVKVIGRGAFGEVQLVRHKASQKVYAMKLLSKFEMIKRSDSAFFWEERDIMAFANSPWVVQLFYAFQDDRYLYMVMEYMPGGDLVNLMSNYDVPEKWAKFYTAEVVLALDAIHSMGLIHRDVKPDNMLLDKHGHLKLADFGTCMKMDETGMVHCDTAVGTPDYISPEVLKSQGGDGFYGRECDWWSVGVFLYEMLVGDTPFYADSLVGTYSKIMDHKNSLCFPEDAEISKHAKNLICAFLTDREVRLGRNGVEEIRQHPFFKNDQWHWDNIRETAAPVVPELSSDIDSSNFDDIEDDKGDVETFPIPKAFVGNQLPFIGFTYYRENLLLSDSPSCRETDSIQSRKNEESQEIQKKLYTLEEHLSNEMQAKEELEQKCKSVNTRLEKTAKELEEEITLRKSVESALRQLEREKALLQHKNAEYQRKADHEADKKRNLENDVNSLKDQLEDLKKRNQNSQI

Molecule	IC50 (PKC epsilon; [1]) [µM]	IC50 (human ROCKα/ROCKII mix; [1]) [µM]	IC50 (PKC epsilon) [µM]	IC50 (human ROCKα/ROCKII mix) [µM]	also measured
4-[1-amino-2-(4-methyl- cyclohexylcarbamoyl)-ethyl]- N-pyridin-4-yl-benzamide [Compound 173]	0.5 to 5	0.05 to 0.5			
4-[1-amino-2-(N′-butyl- hydrazinocarbonyl)-ethyl]-N- pyridin-4-yl-benzamide [Compound 324]	0.5 to 5	0.05 to 0.5			
4-[1-amino-2-(cyclopropyl- methylcarbamoyl)-ethyl]-N- pyridin-4-yl-benzamide [Compound 171]	0.5 to 5	0.05 to 0.5			
4-{1-Amino-2- [(benzo[1,3]dioxol-5- ylmethyl)-carbamoyl]-ethyl}- N-pyridin-4-yl-benzamide [Compound 245]	0.5 to 5	0.05 to 0.5			
4-{1-Amino-2-[2-(9H-fluoren- 2-yl)-ethylcarbamoyl]-ethyl}- N-pyridin-4-yl-benzamide [Compound 318]	5 to 50	0.05 to 0.5			
4-{1-Amino-2-[(2-1H-indol-3- yl-acetyl)-methyl- amino]-ethyl}- N-pyridin-4-yl-benzamide [Compound 443]			5 to 50	0.5 to 5	
4-{1-Amino-2-[(2- benzo[1,3]dioxol-5-yl- acetyl)-methyl-amino]-ethyl}- N-pyridin-4-yl-benzamide [Compound 432]			5 to 50	0.5 to 5	
4-{1-Amino-2-[(2- benzo[b]thiophen-3-yl- acetyl)-methyl- amino]-ethyl}- N-pyridin-4-yl-benzamide [Compound 444]			5 to 50	0.5 to 5	
4-{1-Amino-2-[(2- cyclopentyl-2-phenyl- acetyl)-methyl- amino]-ethyl}- N-pyridin-4-yl-benzamide [Compound 455]			5 to 50	5 to 50	
4-{1-Amino-2-[(2-biphenyl-4- yl-acetyl)-methyl- amino]-ethyl}- N-pyridin-4-yl-benzamide [Compound 436]			5 to 50	0.5 to 5	
4-{1-Amino-2-[(3-methyl- cyclohexanecarbonyl)-amino]-ethyl}- N-pyridin-4-yl-benzamide [Compound 45]					IC50 (PKC epsilon; [2]): 0.5 to 5 µM; IC50 (human ROCKα/ROCKII mix; [2]): 0.5 to 5 µM
4-{1-Amino-2-[(4-methoxy- cyclohexanecarbonyl)-amino]-ethyl}- N-pyridin-4-yl-benzamide [Compound 44]					IC50 (PKC epsilon; [2]): 5 to 50 µM; IC50 (human ROCKα/ROCKII mix; [2]): 0.5 to 5 µM
4-{1-Amino-2-[(furan-2- ylmethyl)-carbamoyl]-ethyl}- N-pyridin-4-yl-benzamide [Compound 278]	0.5 to 5	0.05 to 0.5			
4-{1-Amino-2-[(pyridin-2- ylmethyl)-carbamoyl]-ethyl}- N-pyridin-4-yl-benzamide [Compound 277]	0.5 to 5	0.05 to 0.5			
4-{1-Amino-2-[(pyridin-4- ylmethyl)-carbamoyl]-ethyl}- N-pyridin-4-yl-benzamide [Compound 276]	0.5 to 5	0.05 to 0.5			
4-{1-Amino-2-[(thiophen-2- ylmethyl)-carbamoyl]-ethyl}- N-pyridin-4-yl-benzamide [Compound 279]	0.5 to 5	0.05 to 0.5			
4-{1-Amino-2-[ethyl-(4-nitro- benzyl}-carbamoyl]-ethyl)-N- pyridin-4-yl-benzamide [Compound 274]	0.5 to 5	0.05 to 0.5			

Molecule	IC50 (PKC epsilon; [1]) [µM]	IC50 (human ROCKα/ROCKII mix; [1]) [µM]	IC50 (PKC epsilon) [µM]	IC50 (human ROCKα/ROCKII mix) [µM]	also measured
4-{1-Amino-2-[methyl-(1- phenyl- cyclopropanecarbonyl)- amino]-ethyl}- N-pyridin-4-yl-benzamide [Compound 452]			5 to 50	0.5 to 5	
4-{1-Amino-2-[methyl-(1- thiophen-2-yl- cyclopropanecarbonyl)- amino]-ethyl}- N-pyridin-4-yl-benzamide [Compound 448]			5 to 50	0.5 to 5	
4-{1-Amino-2-[methyl-(1- thiophen-3-yl- cyclopropanecarbonyl)- amino]-ethyl}- N-pyridin-4-yl-benzamide [Compound 450]			5 to 50	0.5 to 5	
4-{1-Amino-2-[methyl-(2- methyl-2-thiophen-2-yl- propionyl)- amino]-ethyl}- N-pyridin-4-yl-benzamide [Compound 447]			0.5 to 5	0.5 to 5	
4-{1-Amino-2-[methyl-(2- methyl-2-thiophen-3-yl- propionyl)- amino]-ethyl}- N-pyridin-4-yl-benzamide [Compound 449]			5 to 50	0.5 to 5	
4-{1-Amino-2-[methyl-(2- naphthalen-1-yl-acetyl)- amino]-ethyl}- N-pyridin-4-yl-benzamide [Compound 435]			5 to 50	0.5 to 5	
4-{1-Amino-2-[methyl-(2- naphthalen-2-yl-acetyl)- amino]-ethyl}- N-pyridin-4-yl-benzamide [Compound 434]			0.5 to 5	0.05 to 0.5	
4-{1-amino-2-[2-(4- trifluoromethyl-phenyl)- ethylcarbamoyl]-ethyl}-N- pyridin-4-yl-benzamide [Compound 309]	0.5 to 5	0.05 to 0.5			
4-{1-amino-2-[2-(4-bromo-2- methoxy-phenyl)- ethylcarbamoyl]-ethyl}-N- pyridin-4-yl-benzamide [Compound 310]	0.5 to 5	0.05 to 0.5			
4-{1-amino-2-[2-(4-methy)- octanoylamino]-ethyl}-N-pyridin-4-yl- benzamide [Compound 37]					IC50 (PKC epsilon; [2]): 0.5 to 5 µM; IC50 (human ROCKα/ROCKII mix; [2]): 0.05 to 0.5 µM
4-{Amino-[1-(2-1H-indol-3-yl-acetyl)-pyrrolidin-2-yl]-methyl}-N-pyridin-4-yl-benzamide [Compound 545]			0.5 to 5	0.05 to 0.5	
N[C@H](CC(=O)NC1COc2ccccc21)c1ccc(C(=O)Nc2ccncc2)cc1 (mixture of isomers) [Compound 403, 4-[(R)-1-Amino-2-(2,3-dihydro-benzofuran-3-ylcarbamoyl)-ethyl]-N-pyridin-4-yl-benzamide dihydrochloric acid salt]			< 0.05	< 0.05	
N[C@@H](CC(=O)NC1COc2ccccc21)c1ccc(C(=O)Nc2ccncc2)cc1 (mixture of isomers) [Compound 404, 4-[(S)-1-Amino-2-(2,3-dihydro-benzofuran-3-ylcarbamoyl)-ethyl]-N-pyridin-4-yl-benzamide dihydrochloric acid salt]			0.5 to 5	0.05 to 0.5	
CC(C)(C)ON=Cc1cccc(C(=O)NCC(N)c2ccc(C(=O)Nc3ccncc3)cc2)c1 (racemic) [Compound 101, 4-{1-amino-2-[(3-tert-butoxyimino-methyl)-benzoylamino]-ethyl}-N-pyridin-4-yl-benzamide]					IC50 (PKC epsilon; [2]): 0.5 to 5 µM; IC50 (human ROCKα/ROCKII mix; [2]): 0.5 to 5 µM
CC(C)(C)ON=Cc1ccc(C(=O)NCC(N)c2ccc(C(=O)Nc3ccncc3)cc2)cc1 (racemic) [Compound 102, 4-{1-amino-2-[(4-tert-butoxyimino-methyl)-benzoylamino]-ethyl}-N-pyridin-4-yl-benzamide]					IC50 (PKC epsilon; [2]): 5 to 50 µM; IC50 (human ROCKα/ROCKII mix; [2]): 0.5 to 5 µM
NC(CC(=O)NC1CCCc2ccccc21)c1ccc(C(=O)Nc2ccncc2)cc1 (single isomer, unassigned) [Compound 221]	0.05 to 0.5	0.05 to 0.5			
